Measurements: ChEMBL document CHEMBL1201862, “PubChem BioAssay data set” (2004)
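In this assay, cells in 96-well plates receive the compound at five concentrations for 48 hours. Endpoints are linearly interpolated between the surrounding concentrations. GI50 = concentration required for 50% inhibition of growth.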 Calls of active or inactive are those of the source. No stated cut-off is given here; in the data, active = GI50 up to about 1.1 µM and inactive = higher.

How the values were obtained:
Assay in all cases: growth of human tumour cells (NCI), 48 h
[1] = system: HCC 2998
[2] = system: OVCAR-8
[3] = system: MCF7
[4] = system: SR
[5] = system: MDA-MB-231
[6] = system: ACHN
[7] = system: KM12
[8] = system: SNB-75
[9] = system: RXF 393
[10] = system: CAKI-1
[11] = system: IGROV-1
[12] = system: HOP-62
[13] = system: K562
[14] = system: HOP-92
[15] = system: SK-MEL-2
[16] = system: OVCAR-4
[17] = system: LOX IMVI
[18] = system: SN12C
[19] = system: BT-549
[20] = system: HCT-116

Measured: GI50

CCOC(=O)c1csc(NC(=O)C(C)N2CCCCC2)n1 (stereo not drawn)
inactive: [1] > 100 µM | [2] > 100 µM | [3] > 100 µM | [4] 2.51 µM | [5] > 100 µM | [6] > 100 µM | [7] > 100 µM | [8] > 100 µM | [9] > 100 µM | [10] > 100 µM | [11] > 100 µM | [12] > 100 µM | [13] > 100 µM | [14] > 100 µM | [15] > 100 µM | [16] > 100 µM | [17] > 100 µM

O=C1Nc2ccccc2C(=O)/C1=C/NC(=S)NCCc1ccccc1
inactive: [18] > 100 µM | [19] > 100 µM | [1] > 100 µM | [2] > 100 µM | [3] > 100 µM | [5] > 100 µM | [20] > 100 µM | [6] > 100 µM | [7] 55.3 µM | [8] > 100 µM | [10] > 100 µM | [11] > 100 µM | [12] > 100 µM | [14] > 100 µM | [15] > 100 µM | [16] > 100 µM | [17] > 100 µM

CCOP(=O)(OCC)C(Nc1ccc(C(=O)O)cc1)c1ccc(C(Nc2ccc(C(=O)O)cc2)P(=O)(OCC)OCC)cc1 (stereo not drawn)
inactive: [19] > 100 µM | [1] > 100 µM | [2] > 100 µM | [5] > 100 µM | [20] > 100 µM | [6] > 100 µM | [7] > 100 µM | [8] > 100 µM | [9] > 100 µM | [10] > 100 µM | [11] > 100 µM | [12] > 100 µM | [13] > 100 µM | [14] > 100 µM | [15] > 100 µM | [16] > 100 µM | [17] > 100 µM

COc1cc(OC2OC(CO)C(O)C(O)C2O)c2c(O)c3c(=O)cc(C)oc3cc2c1 (stereo not drawn)
inactive: [19] 29.5 µM | [1] > 100 µM | [2] > 100 µM | [3] > 100 µM | [20] > 100 µM | [6] > 100 µM | [7] > 100 µM | [8] > 100 µM | [10] > 100 µM | [11] > 100 µM | [12] > 100 µM | [13] > 100 µM | [14] > 10 µM | [15] > 100 µM | [16] > 100 µM | [17] > 100 µM

CC(C)=CCc1c(O)c(CC2=C(O)C(CC=C(C)C)(C(=O)C(C)C)C(O)=C(C)C2=O)c(O)c(C(=O)C(C)C)c1O (stereo not drawn)
inactive: [18] 18.8 µM | [19] 11.6 µM | [1] 7.8 µM | [2] 12 µM | [3] 11.7 µM | [5] 17 µM | [20] 3.05 µM | [6] 11.8 µM | [7] 7.53 µM | [8] 13.6 µM | [9] 12.1 µM | [10] 17.5 µM | [11] 10.9 µM | [12] 11.3 µM | [13] 8.61 µM | [14] 5.07 µM | [15] 11.5 µM | [16] 15.8 µM | [17] 9.48 µM

COc1ccc(C2=C(N)c3c(Cl)cccc3C2=O)cc1
inactive: [18] > 100 µM | [19] > 100 µM | [1] > 100 µM | [2] 53.1 µM | [3] > 100 µM | [5] 80.2 µM | [20] 83.9 µM | [6] > 100 µM | [7] > 100 µM | [8] > 100 µM | [10] > 100 µM | [11] > 100 µM | [12] 70 µM | [14] 34.9 µM | [15] > 100 µM | [16] > 100 µM | [17] > 100 µM

CC1(C)C=CC(=O)C(O)C(C)(C)C1=O (stereo not drawn)
inactive: [18] > 100 µM | [19] 68.1 µM | [2] 59 µM | [5] > 100 µM | [20] 54.5 µM | [6] 98.4 µM | [7] 65.8 µM | [8] 38.7 µM | [9] 66.5 µM | [10] > 100 µM | [11] 89.1 µM | [12] 53.6 µM | [13] 30.3 µM | [14] 92.7 µM | [15] > 100 µM | [16] > 100 µM | [17] 28.7 µM

CC(=O)[C@H]1CC[C@@H]2[C@]1(C)CC=C1[C@]23C=C[C@]2(C[C@@H](O)CC[C@]12C)C(C(=O)O)C3C(=O)O (stereo partly drawn)
inactive: [18] > 100 µM | [19] > 100 µM | [1] > 100 µM | [2] > 100 µM | [3] > 100 µM | [5] > 100 µM | [20] > 100 µM | [6] > 100 µM | [7] > 100 µM | [8] > 100 µM | [10] > 100 µM | [11] > 100 µM | [12] > 100 µM | [13] > 100 µM | [14] > 100 µM | [15] > 100 µM | [16] > 100 µM | [17] > 100 µM
